Test results as given in patent US8076487B2, “Pyridone derivative and herbicide” (Kumiai Chemical Industry Co., Ltd., priority 2006, dated 2011).

What was measured:
Assay type in all cases: in vivo
[1] = tested on: Japanese bulrush (Scirpus juncoides Roxb.); assay: Test Example 1: herbicidal effect by soil application to paddy field; settings: paddy field soil application; active ingredient 1,000 g per 1 hectare; wettable powder added dropwise to water surface the day after sowing; examined on the 21st day after application
Outline: (§1)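 Under greenhouse conditions, seeds sown on puddled paddy soil in 100 cm2 pots under 3 cm of standing water received the test compound; injury was assessed with a standard scoring scheme three weeks (day 21) after treatment.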

[2] = tested on: early watergrass (Echinochloa oryzicola Vasing); assay: as above; settings: paddy field soil application; active ingredient 1,000 g per 1 hectare; wettable powder added dropwise to water surface the day after sowing; examined on the 21st day after application
Outline: as §1

[3] = tested on: heartshape false pickerelweed (Monochoria vaginalis (Burm.f.) C.Presl); assay: as above; settings: paddy field soil application; active ingredient 1,000 g per 1 hectare; wettable powder added dropwise to water surface the day after sowing; examined on the 21st day after application
Outline: as §1

[4] = tested on: barnyardgrass (Echinochloa crus-galli (L.) P. Beauv. var. crus-galli); assay: Test Example 2: herbicidal effect by soil application to upland field; settings: soil surface spray, upland field soil, 1,000 g active ingredient per hectare, 21st day after application
Outline: (§2)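 Scoring on a standard scale took place 21 days after application, with plants kept in a greenhouse. Active ingredient (1,000 g/ha, as diluted wettable powder, 1,000 L/ha) was sprayed evenly onto soil directly after sowing and covering seeds.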

[5] = tested on: green foxtail (Setaria viridis (L.) P. Beauv.); assay: as above; settings: soil surface spray, upland field soil, 1,000 g active ingredient per hectare, 21st day after application
Outline: as §2

[6] = tested on: slender amaranth (Amaranthus viridis L.); assay: as above; settings: soil surface spray, upland field soil, 1,000 g active ingredient per hectare, 21st day after application
Outline: as §2

[7] = tested on: velvetleaf (Abutilon theophrasti medicus); assay: as above; settings: soil surface spray, upland field soil, 1,000 g active ingredient per hectare, 21st day after application
Outline: as §2

[8] = tested on: barnyardgrass (Echinochloa crus-galli (L.) P. Beauv. var. crus-galli); assay: Test Example 3: herbicidal effect by application to upland field (foliage treatment); settings: 14th day after application; for herbicidal effect, Barnyardgrass: foliage treatment, 1,000 g active ingredient per 1 hectare, greenhouse; for herbicidal effect (index), Barnyardgrass: foliage treatment, plants grown two weeks, 1,000 g active ingredient per hectare
Outline: (§3)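 A single foliar application of a water-diluted wettable powder, at 1,000 g of active ingredient per hectare, was made to plants raised for two weeks from seed in field soil. Herbicidal activity was judged visually after a further 14 days in the greenhouse.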

[9] = tested on: green foxtail (Setaria viridis (L.) P. Beauv.); assay: as above; settings: 14th day after application; for herbicidal effect, Green Foxtail: foliage treatment, 1,000 g active ingredient per 1 hectare, greenhouse; for herbicidal effect (index), Green Foxtail: foliage treatment, plants grown two weeks, 1,000 g active ingredient per hectare
Outline: as §3

[10] = tested on: slender amaranth (Amaranthus viridis L.); assay: as above; settings: 14th day after application; for herbicidal effect, Slender Amaranth: foliage treatment, 1,000 g active ingredient per 1 hectare, greenhouse; for herbicidal effect (index), Slender Amaranth: foliage treatment, plants grown two weeks, 1,000 g active ingredient per hectare
Outline: as §3

[11] = tested on: velvetleaf (Abutilon theophrasti medicus); assay: as above; settings: 14th day after application; for herbicidal effect, Velvetleaf: foliage treatment, 1,000 g active ingredient per 1 hectare, greenhouse; for herbicidal effect (index), Velvetleaf: foliage treatment, plants grown two weeks, 1,000 g active ingredient per hectare
Outline: as §3

## O=C(C1=C(O)C2CCC(C2)C1=O)c1ccc(C(F)(F)F)n(-c2ccccc2)c1=O (stereo not drawn) [III-34]
[1]
  herbicidal effect, Scirpus juncoides Roxb.: 5 (90% or more of herbicidal effect and crop phytotoxicity)
[2]
  herbicidal effect, Echinochloa oryzicola Vasing: 5 (90% or more of herbicidal effect and crop phytotoxicity)
[3]
  herbicidal effect, Monochoria vaginalis (Burm. f.) C. Presl: 5 (90% or more of herbicidal effect and crop phytotoxicity)
[4]
  herbicidal effect (index), Barnyardgrass: 5 (90% or more of herbicidal effect and crop phytotoxicity)
[5]
  herbicidal effect (index), Green Foxtail: 5 (90% or more of herbicidal effect and crop phytotoxicity)
[6]
  herbicidal effect (index), Slender Amaranth: 5 (90% or more of herbicidal effect and crop phytotoxicity)
[7]
  herbicidal effect (index), Velvetleaf: 5 (90% or more of herbicidal effect and crop phytotoxicity)
[8]
  herbicidal effect, Barnyardgrass: 5 (90% or more of herbicidal effect and crop phytotoxicity)
[9]
  herbicidal effect, Green Foxtail: 5 (90% or more of herbicidal effect and crop phytotoxicity)
[10]
  herbicidal effect, Slender Amaranth: 5 (90% or more of herbicidal effect and crop phytotoxicity)
[11]
  herbicidal effect, Velvetleaf: 5 (90% or more of herbicidal effect and crop phytotoxicity)

## COC(C)Cn1c(C(F)(F)F)ccc(C(=O)c2cnn(C)c2O)c1=O (stereo not drawn) [IV-38]
[1]
  herbicidal effect, Scirpus juncoides Roxb.: 5 (90% or more of herbicidal effect and crop phytotoxicity)
[2]
  herbicidal effect, Echinochloa oryzicola Vasing: 5 (90% or more of herbicidal effect and crop phytotoxicity)
[3]
  herbicidal effect, Monochoria vaginalis (Burm. f.) C. Presl: 5 (90% or more of herbicidal effect and crop phytotoxicity)
[4]
  herbicidal effect (index), Barnyardgrass: 5 (90% or more of herbicidal effect and crop phytotoxicity)
[5]
  herbicidal effect (index), Green Foxtail: 4 (70 to less than 90% of herbicidal effect and crop phytotoxicity)
[6]
  herbicidal effect (index), Slender Amaranth: 5 (90% or more of herbicidal effect and crop phytotoxicity)
[7]
  herbicidal effect (index), Velvetleaf: 5 (90% or more of herbicidal effect and crop phytotoxicity)
[8]
  herbicidal effect, Barnyardgrass: 5 (90% or more of herbicidal effect and crop phytotoxicity)
[9]
  herbicidal effect, Green Foxtail: 5 (90% or more of herbicidal effect and crop phytotoxicity)
[10]
  herbicidal effect, Slender Amaranth: 5 (90% or more of herbicidal effect and crop phytotoxicity)
[11]
  herbicidal effect, Velvetleaf: 5 (90% or more of herbicidal effect and crop phytotoxicity)

## O=C1CCCC(O)=C1C(=O)c1ccc(C(F)(F)F)n(-c2cccc([N+](=O)[O-])c2)c1=O [I-87]
[1]
  herbicidal effect, Scirpus juncoides Roxb.: 5 (90% or more of herbicidal effect and crop phytotoxicity)
[2]
  herbicidal effect, Echinochloa oryzicola Vasing: 5 (90% or more of herbicidal effect and crop phytotoxicity)
[3]
  herbicidal effect, Monochoria vaginalis (Burm. f.) C. Presl: 5 (90% or more of herbicidal effect and crop phytotoxicity)
[4]
  herbicidal effect (index), Barnyardgrass: 5 (90% or more of herbicidal effect and crop phytotoxicity)
[5]
  herbicidal effect (index), Green Foxtail: 5 (90% or more of herbicidal effect and crop phytotoxicity)
[6]
  herbicidal effect (index), Slender Amaranth: 5 (90% or more of herbicidal effect and crop phytotoxicity)
[7]
  herbicidal effect (index), Velvetleaf: 5 (90% or more of herbicidal effect and crop phytotoxicity)
[8]
  herbicidal effect (index), Barnyardgrass: 5 (90% or more of herbicidal effect and crop phytotoxicity)
[9]
  herbicidal effect (index), Green Foxtail: 5 (90% or more of herbicidal effect and crop phytotoxicity)
[10]
  herbicidal effect (index), Slender Amaranth: 5 (90% or more of herbicidal effect and crop phytotoxicity)
[11]
  herbicidal effect (index), Velvetleaf: 5 (90% or more of herbicidal effect and crop phytotoxicity)

## O=C1CCCC(O)=C1C(=O)c1ccc(C(F)(F)F)n(-c2cc([N+](=O)[O-])ccc2F)c1=O [I-107]
[1]
  herbicidal effect, Scirpus juncoides Roxb.: 5 (90% or more of herbicidal effect and crop phytotoxicity)
[2]
  herbicidal effect, Echinochloa oryzicola Vasing: 5 (90% or more of herbicidal effect and crop phytotoxicity)
[3]
  herbicidal effect, Monochoria vaginalis (Burm. f.) C. Presl: 5 (90% or more of herbicidal effect and crop phytotoxicity)
[4]
  herbicidal effect (index), Barnyardgrass: 5 (90% or more of herbicidal effect and crop phytotoxicity)
[5]
  herbicidal effect (index), Green Foxtail: 5 (90% or more of herbicidal effect and crop phytotoxicity)
[6]
  herbicidal effect (index), Slender Amaranth: 5 (90% or more of herbicidal effect and crop phytotoxicity)
[7]
  herbicidal effect (index), Velvetleaf: 5 (90% or more of herbicidal effect and crop phytotoxicity)
[8]
  herbicidal effect (index), Barnyardgrass: 5 (90% or more of herbicidal effect and crop phytotoxicity)
[9]
  herbicidal effect (index), Green Foxtail: 3 (50 to less than 70% of herbicidal effect and crop phytotoxicity)
[10]
  herbicidal effect (index), Slender Amaranth: 5 (90% or more of herbicidal effect and crop phytotoxicity)
[11]
  herbicidal effect (index), Velvetleaf: 5 (90% or more of herbicidal effect and crop phytotoxicity)

## O=C1CCCC(O)=C1C(=O)c1ccc(C(F)(F)F)n(-c2ccccn2)c1=O [I-150]
[1]
  herbicidal effect, Scirpus juncoides Roxb.: 5 (90% or more of herbicidal effect and crop phytotoxicity)
[2]
  herbicidal effect, Echinochloa oryzicola Vasing: 5 (90% or more of herbicidal effect and crop phytotoxicity)
[3]
  herbicidal effect, Monochoria vaginalis (Burm. f.) C. Presl: 5 (90% or more of herbicidal effect and crop phytotoxicity)
[4]
  herbicidal effect (index), Barnyardgrass: 5 (90% or more of herbicidal effect and crop phytotoxicity)
[5]
  herbicidal effect (index), Green Foxtail: 5 (90% or more of herbicidal effect and crop phytotoxicity)
[6]
  herbicidal effect (index), Slender Amaranth: 5 (90% or more of herbicidal effect and crop phytotoxicity)
[7]
  herbicidal effect (index), Velvetleaf: 5 (90% or more of herbicidal effect and crop phytotoxicity)
[8]
  herbicidal effect, Barnyardgrass: 5 (90% or more of herbicidal effect and crop phytotoxicity)
[9]
  herbicidal effect, Green Foxtail: 5 (90% or more of herbicidal effect and crop phytotoxicity)
[10]
  herbicidal effect, Slender Amaranth: 5 (90% or more of herbicidal effect and crop phytotoxicity)
[11]
  herbicidal effect, Velvetleaf: 5 (90% or more of herbicidal effect and crop phytotoxicity)

## O=C1CCCC(O)=C1C(=O)c1ccc(C(F)(F)F)n(-c2cccc(C(F)(F)F)c2)c1=O [I-85]
[1]
  herbicidal effect, Scirpus juncoides Roxb.: 5 (90% or more of herbicidal effect and crop phytotoxicity)
[2]
  herbicidal effect, Echinochloa oryzicola Vasing: 5 (90% or more of herbicidal effect and crop phytotoxicity)
[3]
  herbicidal effect, Monochoria vaginalis (Burm. f.) C. Presl: 5 (90% or more of herbicidal effect and crop phytotoxicity)
[4]
  herbicidal effect (index), Barnyardgrass: 5 (90% or more of herbicidal effect and crop phytotoxicity)
[5]
  herbicidal effect (index), Green Foxtail: 5 (90% or more of herbicidal effect and crop phytotoxicity)
[6]
  herbicidal effect (index), Slender Amaranth: 5 (90% or more of herbicidal effect and crop phytotoxicity)
[7]
  herbicidal effect (index), Velvetleaf: 5 (90% or more of herbicidal effect and crop phytotoxicity)
[8]
  herbicidal effect (index), Barnyardgrass: 5 (90% or more of herbicidal effect and crop phytotoxicity)
[9]
  herbicidal effect (index), Green Foxtail: 5 (90% or more of herbicidal effect and crop phytotoxicity)
[10]
  herbicidal effect (index), Slender Amaranth: 5 (90% or more of herbicidal effect and crop phytotoxicity)
[11]
  herbicidal effect (index), Velvetleaf: 5 (90% or more of herbicidal effect and crop phytotoxicity)
